{
  "source": "patent US10656089B2",
  "about": "“Systems, devices, and methods for time-resolved fluorescent spectroscopy” (Black Light Surgical, Inc., priority 2016, dated 2020)",
  "tested_on": "NADH levels in ex vivo brain sample (cortex)",
  "assay": "continuous monitoring of NADH in an ex vivo brain sample by time-resolved fluorescence spectroscopy",
  "conditions": "rabbit cortex ex vivo",
  "experimental": "Changes in NADH level were assessed to determine changes in the metabolic status of the brain sample in response to oxygen depletion, stimulation with neuro-protective drugs, and other stimuli. During ATP production in aerobic respiration conditions, NADH is oxidized to NAD+. In low oxygen conditions, for example, in areas of hypoxia or ischemia after a stroke, NADH accumulates in cells and persistent oxygen depletion can lead to cell death and breakdown of NADH. The different NADH states and levels may allow for the assessment of the viability and vulnerability of cells in an ischemic environment. Fluctuations in NADH levels were evaluated by measuring the fluorescence emission from NADH […]. […]\nThe system comprised a Q-switched ND:YaG laser (Teem Photonics PNVM02510) 1804 running at 1 KHz which emitted laser pulse at a wavelength of about 350 nm and a pulse width of about 400 ps full width half maximum (FWHM). […] The probe 1800 comprised a central 600 um fiber 1805 to deliver the excitation light surrounded by twelve 200 um fibers to collect the responsive fluorescence signal. […] One bundle of collection fibers 1806a was coupled to a spectrometer (Ocean Optics, Maya) which monitored the fluorescence spectrum every 100 ms. […]",
  "data": [
    {"smiles": "C=C(C)[C@H]1Cc2c(ccc3c2O[C@@H]2COc4cc(OC)c(OC)cc4[C@@H]2C3=O)O1", "note": "[rotenone]", "values": [
      {"measurement": "NADH levels (free and bound NADH fluorescence)", "setting": "50 nM rotenone added to Kreb-Ringer bath after about 30 minutes baseline", "result": "increased NADH levels"},
      {"measurement": "NADH fluorescence detected", "setting": "additional rotenone doses of 1 uM and 50 uM added at 10 minute intervals", "result": "further increases in fluorescence detected"}
    ]}
  ]
}
